Measured values taken from patent US20120004282A1, “RNA Interference Mediated Inhibition of the Intercellular Adhesion Molecule 1 (ICAM-1) Gene Expression Using Short Interfering Nucleic Acid (siNA)” (Merck Sharp & Dohme Corp,, priority 2009, published 2012).
[invAb] = inverted abasic unit; m = 2'-O-methyl; r = 2'-OH (RNA); f = 2'-fluoro

Columns and labels:
[1] = test system: ICAM-1 mRNA; assay: ICAM-1 mRNA knock-down in transfected Calu-1 cells (Taqman RT-PCR); assay type: cell-based, human; conditions: for % KD Human: Calu-1 cells, 10 nM siNA, 24 hrs post-transfection, relative to non-targeting control; for % KD Human / % KD ICAM-1 10 nM / % KD at 10 nM / Max % KD in DRC: mean ± S.D.; for IC50: ICAM-1 mRNA knockdown, 12 concentrations 0.083 fM to 30 nM; for IC50 / % KD at 10 nM / Max % KD in DRC: human cells; for % KD ICAM-1 10 nM / % KD at 10 nM / Max % KD in DRC: ICAM-1 mRNA; for % KD ICAM-1 10 nM: three independent experiments; for % KD at 10 nM: three separate experiments; for Max % KD in DRC: dose response 0.083 fM to 30 nM
[2] = test system: OAS1 mRNA; assay: Membrane and endosomal TLR3 mediated immunostimulation, OAS1 mRNA increase in Calu 1 cells; assay type: cell-based, human; conditions: Up to 100 nM
Protocol: Human lung epithelial carcinoma (Calu-1) cells were grown at 37 degrees in the presence of 5% CO2 and cultured in […] supplemented with 10% fetal bovine serum, glutamine and antibiotics.
A series of probes and primers were used for the detection of mRNA transcripts of ICAM-1, OAS1, and GAPDH (as control/normalisation) in the human cell lines. The assays were performed on an ABI 7900HT instrument according to the manufacturer's instructions.
With TaqMan data, critical threshold values (Ct) were converted to copy numbers corresponding to the particular gene analysed in each well of the 384 well plate. Six identical wells were prepared in each plate for a given treatment. […] Determination of the percentage coefficient of variation (CV) (% C.V.=[standard deviation/average]*100) allowed the omitting of wells whose value was an outlier (so that % C.V.<25). Relative abundance (aka relative expression) of a gene was determined by dividing the mean copy number of that gene with its GAPDH counterpart in that particular sample.
Calu-1 or NHBE cell were treated as above in Example 2 and used for the measurement of endosomal TLR3 mediated immunostimulation, with the inclusion of polyI:C as a positive control for OAS1 mRNA upregulation. For the measurement of membrane bound TLR3 mediated immunostimulation the Calu 1 cells were cultured at 12000 cells/per 96 well and siNAs administered in PBS in the absence of a delivery vehicle at a concentration of 100 nM, 30 nM, 10 nM, 3 nM, 1 nM, and 0.3 nM.

[3] = test system: human ICAM-2 mRNA transcript; assay: ICAM-2 mRNA specificity screen in human cells (Taqman RT-PCR); assay type: cell-based; conditions: mean ± S.D., three independent experiments
Protocol: Calu-1 (human; ATCC cat# HTB-54): Cells were cultured at 37° C. in the presence of 5% CO2 and grown in McCoy's 5a medium supplemented with fetal bovine serum at a final concentration of 10% and 100 μg/mL of streptomycin and 100 U/mL penicillin.
Calu-1 cells were plated in all wells of a tissue-culture treated, 96-well plate at final counts of 5,000 cells/well in 100 μL of appropriate culture media. Cells were cultured for 24 hours after plating at 37° C. in the presence of 5% CO2.
After 24 hours, complexes containing siNA and RNAiMax were created as follows. A solution of RNAiMax diluted 33-fold in OPTI-MEM was prepared. In parallel, solutions of the siNAs for testing were prepared to a final concentration of 120 nM in OPTI-MEM. After incubation of RNAiMax/OPTI-MEM solution at room temperature for 5 min, an equal volume of the siNA solution and the RNAiMax solution were added together for each of the siNAs. […] This solution was incubated at room temperature for 20 minutes. After incubation, 20 uL of the solution was added to each of the relevant wells. The final concentration of siNA in each well was 10 nM and the final volume of RNAiMax in each well was 0.3 uL.
A series of probes and primers were used to detect the various mRNA transcripts of the genes of ICAM-1 and ICAM-2 in human cell lines (see Table 2). All the Taqman probes and primers for the experiments here-in described were supplied as pre-validated sets by Applied Biosystems, Inc., (see Table 2). The assays were performed on an ABI 7900 instrument, according to the manufacturer's instructions.
A TaqMan Gene Expression Master Mix (provided in the Cells-to-CT™, Applied Biosystems, Cat # 4399002) was used. The PCR reactions were carried out at 50° C. for 2 min, 95° C. for 20 min followed by 40 cycles at 95° C. for 15 secs and 60° C. for 1 min.
The expression level of the gene of interest and % knock-down was calculated using Comparative Ct method: […]
The non-targeting control siNA was, unless otherwise indicated, chosen as the value against which to calculate the % knock-down, because it is the most relevant control.
The specificity the six siNAs in Table 4 was also assessed. The siNAs were tested at 1 nM concentration to determine the effect of the ICAM-1 siNAs on the mRNA transcript of human ICAM-2.

Substance	% KD Human [1]	IC50 [1]	% KD ICAM-1 10 nM [1]	% KD at 10 nM [1]	Max % KD in DRC [1]	Membrane & Endosomal TLR3 mediated Immunostimulation OAS1 mRNA increase Calu 1 Cells [2]	% KD ICAM-2 1 nM [3]
29282-DC: siNA duplex, ICAM-1 target site 2113 (h); sense B cGcAucuGAucuGuAGucA TTB; antisense UGAcuAcAGAucAGAuGcGUU (sense CGCAUCUGAUCUGUAGUCATT; antisense UGACUACAGAUCAGAUGCGUU; sense: DNA at AGT, 2'-fluoro at CU, [invAb] at 5' end, 3' end, backbone not given here; antisense: sugars from the 5' end rrrffmfmmmffmmmfmfmmm, backbone not given here)	95 ± 2%	0.086 ± 0.047 nM	95 ± 2%	95 ± 2%	88 ± 4%	No significant effect	3 ± 6%
29284-DC: siNA duplex, ICAM-1 target site 1141 (h); sense B cucAGucAGuGuGAccGcA TTB; antisense UGCGGucAcAcuGAcuGAGUU (sense CUCAGUCAGUGUGACCGCATT; antisense UGCGGUCACACUGACUGAGUU; sense: DNA at AGT, 2'-fluoro at CU, [invAb] at 5' end, 3' end, backbone not given here; antisense: sugars from the 5' end rrrmmffmfmffmmffmmmmm, backbone not given here)	85 ± 1%	0.281 ± 0.233 nM	85 ± 1%	85 ± 1%	73 ± 4%	No significant effect	6 ± 11%
29285-DC: siNA duplex, ICAM-1 target site 537 (h); sense B GGAAcAAccGGAAGGuGuA TTB; antisense UACAccuuccGGuuGuuccUU (sense GGAACAACCGGAAGGUGUATT; antisense UACACCUUCCGGUUGUUCCUU; sense: DNA at AGT, 2'-fluoro at CU, [invAb] at 5' end, 3' end, backbone not given here; antisense: sugars from the 5' end rrrmffffffmmffmffffmm, backbone not given here)	85 ± 6%	0.394 nM	85 ± 6%	85 ± 6%	70 ± 15%	No significant effect	11 ± 7%
29286-DC: siNA duplex, ICAM-1 target site 1838 (h); sense B cGGAAGAucAAGAAAuAcA TTB; antisense UGUAuuucuuGAucuuccGUU (sense CGGAAGAUCAAGAAAUACATT; antisense UGUAUUUCUUGAUCUUCCGUU; sense: DNA at AGT, 2'-fluoro at CU, [invAb] at 5' end, 3' end, backbone not given here; antisense: sugars from the 5' end rrrmffffffmmffffffmmm, backbone not given here)	89 ± 3%	0.433 ± 0.468 nM	89 ± 3%	89 ± 3%	81 ± 6%	No significant effect	−3 ± 14%
29288-DC: siNA duplex, ICAM-1 target site 2046 (h); sense B cAuuGuccucAGucAGAuA TTB; antisense UAUcuGAcuGAGGAcAAuGUU (sense CAUUGUCCUCAGUCAGAUATT; antisense UAUCUGACUGAGGACAAUGUU; sense: DNA at AGT, 2'-fluoro at CU, [invAb] at 5' end, 3' end, backbone not given here; antisense: sugars from the 5' end rrrffmmffmmmmrfmmfmmm, backbone not given here)	86 ± 3%	0.215 ± 0.129 nM	86 ± 3%	86 ± 3%	78 ± 5%	No significant effect	−9 ± 18%
48722-DC: siNA duplex, ICAM-1 target site 2240 (h); sense B GAcAuAcAAcuGGGAAAuA TTB; antisense UAUuucccAGuuGuAuGucUU (sense GACAUACAACUGGGAAAUATT; antisense UAUUUCCCAGUUGUAUGUCUU; sense: DNA at AGT, 2'-fluoro at CU, [invAb] at 5' end, 3' end, backbone not given here; antisense: sugars from the 5' end rrrfffffmmffmfmfmffmm, backbone not given here)	92 ± 1%	0.098 ± 0.05 nM	92 ± 1%	92 ± 1%	85 ± 1%	No significant effect	−15 ± 29%
